# Reference: patent US4831053A, “Composition for prophylaxis and therapy of hepatitis” (Otsuka Pharmaceutical Co., Ltd., priority 1979, dated 1989)
# Tests used:
# complement = test: Anti-complement activity
# Experimental: A 30-liter jar fermentor was charged with 20 liters of a culture medium of the above formulation, and one flask of the resulting seed culture was cultivated in the culture medium at 28° C. for 5 days with stirring at 300 rpm at an aeration rate of 1 liter per liter of the culture medium per minute. The resulting culture broth was centrifuged at a speed of 8,000 rpm to remove the microbial cells. To the supernatant liquid was added 5 liters of methanol, and the mixture was stirred and then allowed to stand for 3 hours. The mixture was centrifuged and the solid material was removed. The supernatant was extracted with an equal quantity, by volume, of ethyl acetate. The solvent of the ethyl acetate layer was distilled off under reduced pressure. The residue was dissolved in methanol, and passed through a column of activated carbon. The eluate was concentrated to dryness under reduced pressure. The dried mass was dissolved in a mixture of chloroform and ethyl acetate (1:1, v/v) and gel-filtered through a column of Sephadex LH-20. […] The compound had the following physicochemical characteristics.
# [1] = Acute toxicity (intravenous); conditions: in vivo, rat
# Experimental: The acute toxicity of the compound obtained in Synthesis Example 2 was determined by administering it intravenously to rat. The LD50 value obtained was 500 mg/kg.
# [2] = Tautomer equilibrium in solution (NMR); type: physicochemical; conditions: methanol or pyridine as solvent
# Experimental: Integration of the areas under the peak signals indicates a proportion of the former to the latter of about 73:27. After 2 hours the peak at 9.89 ppm increase further to an extent that the integrated proportions become about 70:30, and this proportion remains unchanged according to NMR analysis even after 63 hours. From this it follows that the compound represented by formula (I) and that represented by formula (II) are present in a molar proportion of about 7:3 in the solution. However, when methanol or pyridine is used as a solvent, the compound of formula (II) is not formed.
# [3] = test system: fulminant hepatitis (Schwarzman hepatitis); test: Schwarzman hepatitis (endotoxin-induced fulminant hepatitis): serum GOT and LDH levels, liver sections; type: in vivo, S.D. strain rats
# Experimental: The test for evaluating the prophylactic and therapeutic effect of the compound represented by the formula (I) or (II) was conducted in accordance with the method of Mori et al., Kanzo, Vol. 17, pp. 580-589 (1976), using S.D. strain rats having a body weight of about 300 g as test animals, and causing fulminant hepatitis (Schwarzman hepatitis) to occur. More particularly, 4 test groups, each consisting of 5 S.D. strain rats, were administered 0.1 mg/body of endotoxin (LPS: E. coli 0.26: B6, a product of Difco Co.) peritoneally (by injection), and after 48 hours the same endotoxin preparation was administered by injection to each group at a dosage of 0.05, 0.2, 0.5 or 1.2 mg/body for boostering. On the other hand, 5 mg/body of the active ingredient of the agent of this invention was administered peritoneally by injection once a day for 6 days. This treatment was initiated 2 days before the first administration of endotoxin took place and ended on the day after the second administration of endotoxin for boostering. The test animals were victimized (i.e., destroyed and analyzed) 48 hours after the second administration of endotoxin, and the levels of GOT and LDH in the serum of the victimized rats were determined using a UV method described in American Journal of Clinical Pathology, Vol. 47, pp. 419-428 (1967) and Cancer Research, Vol. 14, pp. 513-515 (1954). In addition, degree of occurrence of hepatic necrosis and distribution of endotoxin in the liver were obseved microscopically using sections of liver of the victimized animals. The compound obtained in Synthesis Example 2 was used as the active ingredient. The same procedure was repeated on animals of 4 control groups which were not administered the active ingredient. The levels of GOT and of LDH in the serum determined for the group which received endotoxin boostering amount of 0.5 mg/body at the second administration and for the control group are shown in FIGS. 1 and 2, respectively. In FIGS. 1 and 2, the symbol o indicates the values obtained for each test animal in the group. Evaluation of the results was made based on the average value ± an error obtained by statistical treatment thereof. […] The sections of livers of the test animals of the same groups as above were observed using the fluorescence antibody method described in Journal of Experimental Medicine, Vol. 91, pp. 1-13 (1950).
# chronic hepatitis = test: Clinical data: patient with chronic hepatitis, GOT, GPT and serum bilirubin before and after administration; type: in vivo; conditions: human, oral, about 500 mg twice a day
# Experimental: This treatment was continued for 2 months.
# The levels of glutamic oxalacetic transaminase (GOT), glutamic pyruvic transaminase (GPT) and serum bilirubin (SB) were determined according to the conventional methods described in Am. J. Clin. Path., 28, 56-63 (1957) (for GOT and GPT) and in J. Biol. Chem., 119, 481-490 (1937) (for SB), and compared with the data obtained before the administration, as shown in Table below.
# [4] = microscopic observation of liver sections (×100), FIG. 3b
# [5] = rat, 5 mg/body i.p. once a day for 6 days, endotoxin booster 0.5 mg/body, vs control group
structure (smiles),measurement,setting,value
"CC1CCC2C(C)(C)C(O)C(O)CC2(C)C12Cc1c(O)cc(C=O)c(C=O)c1O2 (stereo not shown) [Synthesis Example 1, 6,7-dihydroxy-2,5,5,8a-tetramethyl-1,2,3,4,4a,5,6,7,8,8a-decahydronaphthalene-1-spiro-2'-(6',7'-diformyl-4'-hydroxy-2',3'-dihydrobenzofuran)]",anti-complement activity,complement,having an anti-complement activity
"CC1CCC2C(C)(C)C(O)C(O)CC2(C)C12Cc1c(O)cc3c(c1O2)C(O)OC3=O (stereo not shown) [Synthesis Example 2, 4,8-dihydroxy-6-oxo-2,3,6,8-tetrahydro-furo[3,4-g]benzofuran-2-spiro-1'-(6',7'-dihydroxy-2',5',5',8'a-tetramethyl-1',2',3',4',4'a,5',6',7',8',8'a-decahydronaphthalene)]",LD50,[1],500 mg/kg
same,formation of compound of formula (II) in solution,[2],not formed
same,distribution of endotoxin in the liver,"[3]; fluorescence antibody method, liver sections, FIG. 4b",strongly localized in Kupffer cells but scarcely outside the cells
same,degree of cell degeneration of liver cells,[3]; [4],very slight
same,occurrence of damage of cells of liver,[3]; [4],significantly inhibited or such damage was substantially cured
same,level of GOT in the serum,[3]; [5],significantly lower than those of the control group
same,level of LDH in the serum,[3]; [5],significantly lower than those of the control group
same,occurrence of fulminant hepatitis (Schwarzman hepatitis),"[3]; rat, 5 mg/body i.p. once a day for 6 days, from GOT and LDH levels",significantly inhibits the occurrence of fulminant hepatitis
"CC1CCC2C(C)(C)C(O)C(O)CC2(C)C12Cc1c(O)cc(C(=O)O)c(C=O)c1O2 (stereo not shown) [Synthesis Example 3, disodium 6,7-dihydroxy-2,5,5,8a-tetramethyl-1,2,3,4,4a,5,6,7,8,8a-decahydronaphthalene-1-spiro-2'-(6'-carboxylate-7'-formyl-4'-oxide-2',3'-dihydrobenzofuran)]",feeling with respect to fatigue and loss of strength,"chronic hepatitis; 2 months, described by patient",considerably improved feeling
same,SB (serum bilirubin),"chronic hepatitis; after administration (2 months), before: 2.6",1.5 mg/dL
same,GPT,"chronic hepatitis; after administration (2 months), before: 143",67 unit
same,GOT,"chronic hepatitis; after administration (2 months), before: 180",45 unit
